Measured values as given in patent US11628186B2, “Method and composition for the reduction of viral replication, duration and spread of the COVID-19 and the flu” (priority 2017, dated 2023).
Read-outs that look alike come from different tables or passages of the source.

Experiments:
[1] = system: tumors; assay: Pre-inhalation of the formula before inhaled 3-bromopyruvate; type: in vivo, rats
Procedure: The problem with 3-bromopyruvate was its toxicity to normal lung cells. The formula needed to protect noncancerous cells from 3-bromopyruvate and to enhance its effect on tumors, was the addition of inhaled 20 mM solution of sodium pyruvate, calcium, phosphate, magnesium formula inhaled 1-2 hours prior to the inhalation of the 10 mg of 3-bromopyruvate. The investigators were given the sodium pyruvate with calcium, phosphate and magnesium formula and instructed to have the rats inhale the formula 1-2 hours prior the inhalation of the cancer drug. This approach reduced tumor sizes by 90% compared the 60% reduction with 3bromopyruvate by itself. The addition of dichloroacetate with 3-bromopyruvate to the sodium pyruvate with calcium, phosphate and magnesium formula was the best formula decreasing tumor loads by 95%, especially with the addition of magnesium bicarbonate that increased the PH to 7.9 to neutralize the lactic acid produced in tumors that enhance tumorigenesis.

[2] = system: lung tumors; conditions: cited from earlier work
[3] = system: human lung cancer cell line; conditions: cited from earlier work
[4] = system: patients with sinus & lung diseases including IPF and COPD; assay: Salts of pyruvate as 20 mM nasal sprays (Table IX); conditions: for Overall Rating 1-10: 20 mM (0.22%) nasal spray, 1 most negative, 10 best; for Increased in FEV-1% / Irritation / Percentage Increase in SaO2 over baseline / Percentage increase of Nitric Oxide over baseline / Relief of congestion, coughing and lung tightness: in vivo
Excerpt: They never tested the individual salts for their ability to reduce inflammation or increase lung functions.

[5] = system: patients suffering from Parkinson; assay: Inhaled pyruvate salts in Parkinson patients; type: in vivo, human; conditions: 1 mM solution in the calcium, phosphate, magnesium formula, inhaled every day for five weeks
[6] = system: patients with lung diseases including COPD; assay: Comparison of inhaled salts of pyruvate, 5 ml of 0.5 mM solution (Table I); conditions: for Increased in FEV-1% lung function: 5 ml of 0.5 mM solution in physiological saline; for Overall Rating 1-10: 1 most negative, 10 best
Procedure: All previous studies using pyruvate to treat Allergic Rhinitis, Asthmatic and COPD patients used only the sodium salt form of pyruvic acid in saline. The drug products that were tested in the six Phase I/II clinical trial were differing concentrations of sodium pyruvate dissolved in 0.9% sodium chloride solution (Saline). These drug products contained 0.5 mM, 1.5 mM, or 5.0 mM of sodium pyruvate in physiological saline. They were administered to normal volunteers and COPD and asthmatics by inhalation therapy. […] Various sodium pyruvate solutions were evaluated in the lungs for their ability to enhance FEV1 values and reduce coughing, and lung tightness.
The amount of the salts delivered in the 5 ml's of the 0.5 mM pyruvate solutions were compared to the amounts of the salts in 5 ml's of human blood. […] When ethyl pyruvate reacts with oxygen radical like hydrogen peroxide, it is converted to ethane and alcohol and Co2 and acetate. Ethane and alcohol are lung irritants.
This formula can also be made by adding 3% calcium phosphate or dicalcium phosphate to the standard 0.5 mM to 30 mM sodium pyruvate saline solution see Table I.

[7] = system: patients with lung diseases including COPD; assay: Comparison of inhaled salts of pyruvate, 5 ml of 5 mM solution (Table II); conditions: for Increased in FEV-1%: 5 ml of 5 mM solution in saline; for Increased in FEV-1% / Irritation / Percentage Increase in SaO2 over baseline / Percentage increase of Nitric Oxide over baseline / Relief of congestion, coughing and lung tightness: inhaled; for Irritation / Percentage Increase in SaO2 over baseline / Percentage increase of Nitric Oxide over baseline / Relief of congestion, coughing and lung tightness / Overall Rating 1-10: 5 ml of 5 mM solution; for Overall Rating 1-10: 1 most negative, 10 best
[8] = system: Smokers; assay: Inhaled nicotine in pyruvate formulas
[9] = system: patients with chronic Hypoxemia; assay: Various drugs with or without pre-inhaled pyruvate formulas (Table VII); type: in vivo, human; conditions: in vivo
Procedure: With the hundreds of patients tested in our various clinical trials, data was gathered as to the type of medications the patients used and the frequency of their use over a six-month period. The patients were asked to rate their medications form 1-10 with 1 being the most irritating with the most side effects and 10 being the best with no irritation and no side effects. In these clinical trials, various drugs were evaluated for irritation, mucus production, and efficacy in humans. The drugs were all evaluated using their current formulations and concentrations against the same formulations with the addition of sodium pyruvate, with the calcium, phosphate and magnesium formula given just prior to the use of their medications. They were instructed to 20 inhale this formula just prior to the use of their medications and to evaluate the effect of their medications on the 1-10 scale.
Patients on the various inhaled medications whether inhaled or taken orally or by IV infusion, were enlisted in the evaluation of the inhaled sodium pyruvate calcium, phosphate and magnesium formula. The patients were tested for their SaO2 levels and those that had SaO2 levels below 92% were asked to enlist in the study. […] After the SaO2 levels were determined prior to and one hour after taking their medications, the patients returned the following day, SaO2 measurements were taken one hour prior to taking their medications. The patients were then handed the hypotonic inhalation formula of sodium pyruvate with calcium, phosphate magnesium formula and instructed to inhale it one hour before taking their medications, SaO2 measurements were then taken one hour after taking their medications.

[10] = Mucolytic activity with inhaled acetylcysteine; type: in vivo, human; conditions: with or versus commercial inhaled acetylcysteine
[11] = system: Patients with a severe case of CIVID-19 infection; type: in vivo, human; conditions: 5 patients treated with just the gas
[12] = system: SARS CoV; type: cell-based
[13] = system: porcine respiratory coronavirus (PRCV); assay: Antiviral assay with NO donor in swine testicular (ST) cells; type: cell-based; conditions: NO donor SNAP
Procedure: We examined NO levels by Greiss assay in bronchoalveolar lavage (BAL) of pigs infected with either porcine respiratory coronavirus (PRCV). The antiviral effects of NO on this virus was tested in an in vitro system using a NO donor, S-nitroso-N-acetyl penicillamine (SNAP). We detected a large increase in NO levels in BAL fluids of PRCV-infected pigs. Pulmonary epithelial cell necrosis induced by PRCV coincided with increased NO. […] NO plays a role in innate immunity to respiratory CoV infections by inhibiting viral replication.

[14] = 1 atm, cited from earlier work
[15] = aerosol, 10 mg/5 mL by inhalation, 8 weeks
[16] = 5 ml of 0.5 mM solution, inhaled

| Molecule | Overall Rating 1-10 [4] | Increased in FEV-1% [4] | Irritation [4] | Percentage Increase in SaO2 over baseline [4] | Percentage increase of Nitric Oxide over baseline [4] | Relief of congestion, coughing and lung tightness [4] | shaking [5] | Increased in FEV-1% lung function ([6]; inhaled) | Irritation [6, 16] | Percentage Increase in SaO2 over baseline [6, 16] | Percentage decrease or increase of Nitric Oxide over baseline [6, 16] | Relief of congestion, coughing and lung tightness [6, 16] | Overall Rating 1-10 ([6]; 5 ml of 0.5 mM solution) | Increased in FEV-1% [7] | Irritation [7] | Percentage Increase in SaO2 over baseline [7] | Percentage increase of Nitric Oxide over baseline [7] | Relief of congestion, coughing and lung tightness [7] | Overall Rating 1-10 [7] | further results |
| --- | --- | --- | --- | --- | --- | --- | --- | --- | --- | --- | --- | --- | --- | --- | --- | --- | --- | --- | --- | --- |
| O=C(O)C(=O)CBr [3-bromopyruvate] | – | – | – | – | – | – | – | – | – | – | – | – | – | – | – | – | – | – | – | reduced tumor sizes ([1]; 20 mM sodium pyruvate, calcium, phosphate, magnesium formula inhaled 1-2 hours prior to 10 mg of 3-bromopyruvate): 90%; reduction of tumor sizes ([1]; by itself): 60%; decreased tumor load [2, 15]: 60%; decreased tumor multiplicity [2, 15]: 40%; liver toxicity ([2]; aerosolized): did not accompany any liver toxicity; apoptosis [3]: induced apoptosis through caspase-3, and PARP |
| CC(=O)C(=O)[O-].[Li+] [Lithium, lithium pyruvate] | 2 | 0.0% | Yes | No | 00.0% | 2 | substantially reduced | 1.0% | Yes | No | +6.0% | 2 | 2 | 1.0% | Yes | No | 28.0% | 2 | 2 | reduction of nitric oxide ([6]; 5 mls of a 0.5 mM inhalation solution): did not reduce nitric oxide; irritation in the nasal cavities compared with the lungs ([6]; evaluated in the nasal cavities): even more irritating; bronchial dilator effect ([6]; inhaled): acting as a bronchial dilator; Irritation ([6]; inhaled into the lungs): irritating |
| CN1CCCC1c1cccnc1 (stereo not shown) [Nicotine] | – | – | – | – | – | – | – | – | – | – | – | – | – | – | – | – | – | – | – | ability of each patient to determine the effect of nicotine delayed ([8]; Nicotine delivered only with sodium pyruvate in saline solution): 26%; tolerability ([8]; nicotine in modified formula sodium pyruvate and calcium, phosphate and magnesium, nasal or lungs): well tolerated; SaO2 Measurements taken after medication and compared to baseline [9]: −3; SaO2 Measurements taken after taking the medication and compared to baseline [9]: +2; SaO2 measurements taken after taking medication and compared to baseline [9]: +4 |
| CC(=O)C(=O)N[C@@H](CS)C(=O)O [Pyruvyl-cysteine] | – | – | – | – | – | – | – | 11% | – | 0% | 0% | 5 | 8 | 5% | – | 0% | 1% | 8 | 8 | mucolytic activity [10]: as effective as acetylcysteine |
| [N]=O [nitric oxide] | – | – | – | – | – | – | – | – | – | – | – | – | – | – | – | – | – | – | – | lung surfactants and lung fibrosis [11]: did not increase lung surfactants or reduce lung fibrosis; replication cycle of SARS CoV [12]: specifically inhibits the replication cycle of SARS CoV; PRCV replication [13]: significantly inhibited PRCV replication; solubility in water ([14]; 20° C.): 4.6 ml/100 ml; solubility in water ([14]; 60° C.): 2.37 ml/100 ml |
| magnesium pyruvate | 4 | 4.0% | slight | no | 5.1% | 6 | also worked | 12.0% | None | no | −2.0% | 6 | 7 | 2.0% | None | no | 5.1% | 6 | 7 | FEV1 ([6]; 5 mls of a 0.5 mM pyruvate inhalation solution in COPD and asthmatic patients): 10% |
